According to paper PMC9230623, “Design, Synthesis, In Vitro Biological Activity Evaluation and Stabilized Nanostructured Lipid Carrier Formulation of Newly Synthesized Schiff Bases-Based TMP Moieties” (Pharmaceuticals, 2022):
Where two headings read alike, the source gives them in different places.

What was measured:
[1] = system: MDA-MB-231 breast cancer cell line; assay: Cytotoxic assay against MDA-MB-231 breast cancer cell line; type: cell-based; settings: Homo sapiens
Description: The newly prepared Schiff bases 2–5g were screened for their in vitro cytotoxic activity against the MDA-MB-231 breast cancer cell line taking CA-4 as a reference drug. […] In addition, further structure extension to give N-aryl hydrazinyl molecules 4a–5g produced compounds with considerable cytotoxic activity, which may give an indication that the aryl ring is important for cytotoxic activity. […]
Cytotoxic activity of the prepared schiff bases against MDA-MB-231 breast cell Line was determined according previously reported methods. (See Supplementary Materials—Appendix SB).

[2] = system: normal breast cell line MCF-10A; assay: Cytotoxic assay against normal breast cell line MCF-10A; type: cell-based; settings: Homo sapiens, read-out: IC50 Value (μM) MCF-10A
[3] = MDA-MB-231, mean of three independent replicates ± SE, read-out: IC50 Value (μM) MDA-MB-231

SMILES | IC50 ([1]; MDA-MB-231, read-out: IC50 Value (μM) MDA-MB-231) | IC50 [2] | melting point | IC50 [1, 3]
COc1ccc(/C=C\c2cc(OC)c(OC)c(OC)c2)cc1O [CA-4, combretastatin A-4, reference compound] | 0.54 ± 0.04 µM | 8.86 ± 0.67 µM |  | 
C/C=N/NC(=O)/C(=C/c1cc(OC)c(OC)c(OC)c1)NC(=O)c1cc(OC)c(OC)c(OC)c1 [Compound 2, N-((Z)-3-((E)-2-Ethylidenehydrazinyl)-3-oxo-1-(3,4,5-trimethoxyphenyl)prop-1-en-2-yl)-3,4,5-trimethoxybenzamide] |  |  | 224 to 226 °C | 31.6 ± 1.07 µM
COc1cc(/C=C(\NC(=O)c2cc(OC)c(OC)c(OC)c2)C(=O)N/N=C/c2ccco2)cc(OC)c1OC [Compound 3, N-((Z)-3-((E)-2-(Furan-2-ylmethylene)hydrazinyl)-3-oxo-1-(3,4,5-trimethoxyphenyl)prop-1-en-2-yl)-3,4,5-trimethoxybenzamide] |  |  | 212 to 214 °C | 6.08 ± 0.42 µM
COc1cc(/C=C(\NC(=O)c2cc(OC)c(OC)c(OC)c2)C(=O)N/N=C/c2ccc(F)cc2)cc(OC)c1OC [Compound 4a, N-((Z)-3-((E)-2-(4-Fluorobenzylidene)hydrazinyl)-3-oxo-1-(3,4,5-trimethoxyphenyl)prop-1-en-2-yl)-3,4,5-trimethoxybenzamide] |  |  | 201 to 203 °C | 23.7 ± 1.13 µM
COc1cc(/C=C(\NC(=O)c2cc(OC)c(OC)c(OC)c2)C(=O)N/N=C/c2ccc(Cl)cc2)cc(OC)c1OC [Compound 4b, N-((Z)-3-((E)-2-(4-Chlorobenzylidene)hydrazinyl)-3-oxo-1-(3,4,5-trimethoxyphenyl)prop-1-en-2-yl)-3,4,5-trimethoxybenzamide] |  |  | 233 to 235 °C | 16.1 ± 0.83 µM
COc1cc(/C=C(\NC(=O)c2cc(OC)c(OC)c(OC)c2)C(=O)N/N=C/c2ccccc2[N+](=O)[O-])cc(OC)c1OC [Compound 4c, 3,4,5-Trimethoxy-N-((Z)-3-((E)-2-(2-nitrobenzylidene)hydrazinyl)-3-oxo-1-(3,4,5-trimethoxyphenyl)prop-1-en-2-yl)benzamide] |  |  | 239 to 241 °C | 38.8 ± 0.93 µM
COc1cc(/C=C(\NC(=O)c2cc(OC)c(OC)c(OC)c2)C(=O)N/N=C/c2ccccc2O)cc(OC)c1OC [Compound 4d, N-((Z)-3-((E)-2-(2-Hydroxybenzylidene)hydrazinyl)-3-oxo-1-(3,4,5-trimethoxyphenyl)prop-1-en-2-yl)-3,4,5-trimethoxybenzamide] |  |  | 220 to 222 °C | 5.98 ± 0.28 µM
COc1cc(/C=C(\NC(=O)c2cc(OC)c(OC)c(OC)c2)C(=O)N/N=C/c2ccc(O)cc2)cc(OC)c1OC [Compound 4e, N-((Z)-3-((E)-2-(4-Hydroxybenzylidene)hydrazinyl)-3-oxo-1-(3,4,5-trimethoxyphenyl)prop-1-en-2-yl)-3,4,5-trimethoxybenzamide] |  |  |  | 7.1 ± 1.02 µM
COc1cc(/C=C(\NC(=O)c2cc(OC)c(OC)c(OC)c2)C(=O)N/N=C/c2ccc(C)cc2)cc(OC)c1OC [Compound 4f, 3,4,5-Trimethoxy-N-((Z)-3-((E)-2-(4-methylbenzylidene)hydrazinyl)-3-oxo-1-(3,4,5-trimethoxyphenyl)prop-1-en-2-yl)benzamide] |  |  | 208 to 210 °C | 4.52 ± 0.36 µM
COc1ccc(/C=N/NC(=O)/C(=C/c2cc(OC)c(OC)c(OC)c2)NC(=O)c2cc(OC)c(OC)c(OC)c2)cc1 [Compound 4g, 3,4,5-Trimethoxy-N-((Z)-3-((E)-2-(4-methoxybenzylidene)hydrazinyl)-3-oxo-1-(3,4,5-trimethoxyphenyl)prop-1-en-2-yl)benzamide] |  |  | 217 to 219 °C | 3.43 ± 0.22 µM
COc1cc(/C=C(\NC(=O)c2cc(OC)c(OC)c(OC)c2)C(=O)N/N=C/c2ccc(N(C)C)cc2)cc(OC)c1OC [Compound 4i, N-((Z)-3-((E)-2-(4-(Dimethylamino)benzylidene)hydrazinyl)-3-oxo-1-(3,4,5-trimethoxyphenyl)prop-1-en-2-yl)-3,4,5-trimethoxybenzamide] |  |  | 243 to 245 °C | 3.46 ± 0.51 µM
COc1cc(/C=N/NC(=O)/C(=C/c2cc(OC)c(OC)c(OC)c2)NC(=O)c2cc(OC)c(OC)c(OC)c2)ccc1O [Compound 4j, N-((Z)-3-((E)-2-(4-Hydroxy-3-methoxybenzylidene)hydrazinyl)-3-oxo-1-(3,4,5-trimethoxyphenyl)prop-1-en-2-yl)-3,4,5-trimethoxybenzamide] |  |  | 226 to 228 °C | 2.84 ± 0.18 µM
COc1cc(/C=N/NC(=O)/C(=C/c2cc(OC)c(OC)c(OC)c2)NC(=O)c2cc(OC)c(OC)c(OC)c2)cc(OC)c1 [Compound 4k, N-((Z)-3-((E)-2-(3,5-Dimethoxybenzylidene)hydrazinyl)-3-oxo-1-(3,4,5-trimethoxyphenyl)prop-1-en-2-yl)-3,4,5-trimethoxybenzamide] |  |  | 214 to 216 °C | 4.8 ± 0.17 µM
COc1cc(/C=C(\NC(=O)c2cc(OC)c(OC)c(OC)c2)C(=O)N/N=C/c2cc(OC)c(OC)c(OC)c2)cc(OC)c1OC [Compound 4l, 3,4,5-Trimethoxy-N-((Z)-3-oxo-3-((E)-2-(3,4,5-trimethoxybenzylidene)hydrazinyl)-1-(3,4,5-trimethoxyphenyl)prop-1-en-2-yl)benzamide] |  |  |  | 7.3 ± 0.64 µM
COc1cc(/C=C(\NC(=O)c2cc(OC)c(OC)c(OC)c2)C(=O)N/N=C(\C)c2ccccc2)cc(OC)c1OC [Compound 5a, 3,4,5-Trimethoxy-N-((Z)-3-oxo-3-((E)-2-(1-phenylethylidene)hydrazinyl)-1-(3,4,5-trimethoxyphenyl)prop-1-en-2-yl)benzamide] |  |  | 260 to 262 °C | 20.2 ± 0.89 µM
COc1cc(/C=C(\NC(=O)c2cc(OC)c(OC)c(OC)c2)C(=O)N/N=C(\C)c2ccc(Cl)cc2)cc(OC)c1OC [Compound 5b, N-((Z)-3-((E)-2-(1-(4-Chlorophenyl)ethylidene)hydrazinyl)-3-oxo-1-(3,4,5-trimethoxyphenyl)prop-1-en-2-yl)-3,4,5-trimethoxybenzamide] |  |  | 249 to 251 °C | 14 ± 1.19 µM
COc1cc(/C=C(\NC(=O)c2cc(OC)c(OC)c(OC)c2)C(=O)N/N=C(\C)c2ccc(Br)cc2)cc(OC)c1OC [Compound 5c, N-((Z)-3-((E)-2-(1-(4-Bromophenyl)ethylidene)hydrazinyl)-3-oxo-1-(3,4,5-trimethoxyphenyl)prop-1-en-2-yl)-3,4,5-trimethoxybenzamide] |  |  | 244 to 246 °C | 20.7 ± 1.84 µM
COc1cc(/C=C(\NC(=O)c2cc(OC)c(OC)c(OC)c2)C(=O)N/N=C(\C)c2ccc(O)cc2)cc(OC)c1OC [Compound 5d, N-((Z)-3-((E)-2-(1-(4-Hydroxyphenyl)ethylidene)hydrazinyl)-3-oxo-1-(3,4,5-trimethoxyphenyl)prop-1-en-2-yl)-3,4,5-trimethoxybenzamide] |  |  | 258 to 260 °C | 1.98 ± 0.19 µM
COc1ccc(/C(C)=N/NC(=O)/C(=C/c2cc(OC)c(OC)c(OC)c2)NC(=O)c2cc(OC)c(OC)c(OC)c2)cc1 [Compound 5e, 3,4,5-Trimethoxy-N-((Z)-3-((E)-2-(1-(4-methoxyphenyl)ethylidene)hydrazinyl)-3-oxo-1-(3,4,5-trimethoxyphenyl)prop-1-en-2-yl)benzamide] |  |  | 241 to 243 °C | 9.52 ± 1.18 µM
COc1ccc(/C(C)=N/NC(=O)/C(=C/c2cc(OC)c(OC)c(OC)c2)NC(=O)c2cc(OC)c(OC)c(OC)c2)cc1OC [Compound 5f, N-((Z)-3-((E)-2-(1-(3,4-Dimethoxyphenyl)ethylidene)hydrazinyl)-3-oxo-1-(3,4,5-trimethoxyphenyl)prop-1-en-2-yl)-3,4,5-trimethoxybenzamide] |  |  | 234 to 236 °C | 8.34 ± 1.22 µM
COc1cc(/C=C(\NC(=O)c2cc(OC)c(OC)c(OC)c2)C(=O)N/N=C(\C)c2cc(OC)c(OC)c(OC)c2)cc(OC)c1OC [Compound 5g, 3,4,5-Trimethoxy-N-((Z)-3-oxo-1-(3,4,5-trimethoxyphenyl)-3-((E)-2-(1-(3,4,5-trimethoxyphenyl)ethylidene)hydrazinyl)prop-1-en-2-yl)benzamide] |  |  | 211 to 213 °C | 3.39 ± 0.26 µM
